Consider three compounds from publication PMC4685510, “A Cell Biologist’s Field Guide to Aurora Kinase Inhibitors” (Frontiers in Oncology, 2015).

Holding throughout (experiment): biochemical
Common to all, as to type: biochemical

For experiment [1], the target named is 363 human kinases (including Aurora A/B/C) (Homo sapiens, UniProt O60674). The note with it: JAK2; for remaining activity at 0.5 µM / remaining activity at 0.1 µM: read-out: % Enzyme Activity (relative to DMSO controls); for remaining activity at 0.1 µM: 100 nM.
Sequence of 363 human kinases (including Aurora A/B/C) (Homo sapiens, UniProt O60674) (O60674 whole entry): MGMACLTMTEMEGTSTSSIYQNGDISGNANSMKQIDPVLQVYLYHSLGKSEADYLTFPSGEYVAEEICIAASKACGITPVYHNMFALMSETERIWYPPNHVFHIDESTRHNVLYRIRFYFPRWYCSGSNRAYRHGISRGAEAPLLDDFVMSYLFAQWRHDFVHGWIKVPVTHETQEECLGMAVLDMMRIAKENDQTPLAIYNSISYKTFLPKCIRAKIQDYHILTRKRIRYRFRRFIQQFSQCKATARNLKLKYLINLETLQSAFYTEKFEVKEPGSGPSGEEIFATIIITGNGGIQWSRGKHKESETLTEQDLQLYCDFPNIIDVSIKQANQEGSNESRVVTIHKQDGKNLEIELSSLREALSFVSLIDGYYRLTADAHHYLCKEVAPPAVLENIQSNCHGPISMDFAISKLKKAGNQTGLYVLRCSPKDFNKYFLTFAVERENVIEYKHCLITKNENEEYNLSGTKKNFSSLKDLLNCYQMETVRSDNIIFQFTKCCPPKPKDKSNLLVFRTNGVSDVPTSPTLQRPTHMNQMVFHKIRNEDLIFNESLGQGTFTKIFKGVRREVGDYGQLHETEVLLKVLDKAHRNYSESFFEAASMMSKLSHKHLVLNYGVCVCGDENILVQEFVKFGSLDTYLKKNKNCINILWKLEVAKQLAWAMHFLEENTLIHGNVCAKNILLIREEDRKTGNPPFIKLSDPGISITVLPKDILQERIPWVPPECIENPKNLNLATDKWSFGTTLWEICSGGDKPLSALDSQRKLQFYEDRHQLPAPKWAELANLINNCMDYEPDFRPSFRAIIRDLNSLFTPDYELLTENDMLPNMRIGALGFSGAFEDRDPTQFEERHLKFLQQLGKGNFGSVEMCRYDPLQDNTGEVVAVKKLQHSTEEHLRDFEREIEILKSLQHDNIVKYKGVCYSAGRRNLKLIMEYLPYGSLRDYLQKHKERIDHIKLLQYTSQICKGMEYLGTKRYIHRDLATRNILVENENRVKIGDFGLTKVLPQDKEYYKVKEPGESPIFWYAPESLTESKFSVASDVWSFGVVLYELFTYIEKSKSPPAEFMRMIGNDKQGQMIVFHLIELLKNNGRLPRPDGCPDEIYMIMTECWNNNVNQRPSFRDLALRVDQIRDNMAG
Description: (§1) However, the Aurora A/B selectivity ratios derived from our in vitro and in vivo data can be compared to prioritize inhibitors.
Experiment [2] deals with 363 human kinases (including Aurora A/B/C) (Homo sapiens, UniProt Q15303). Conditions: ERBB4/HER4, [ATP] 2.5 µM; for remaining activity at 0.5 µM / remaining activity at 0.1 µM: read-out: % Enzyme Activity (relative to DMSO controls); for remaining activity at 0.1 µM: 100 nM.
Sequence of 363 human kinases (including Aurora A/B/C) (Homo sapiens, UniProt Q15303) (Q15303 26-1308): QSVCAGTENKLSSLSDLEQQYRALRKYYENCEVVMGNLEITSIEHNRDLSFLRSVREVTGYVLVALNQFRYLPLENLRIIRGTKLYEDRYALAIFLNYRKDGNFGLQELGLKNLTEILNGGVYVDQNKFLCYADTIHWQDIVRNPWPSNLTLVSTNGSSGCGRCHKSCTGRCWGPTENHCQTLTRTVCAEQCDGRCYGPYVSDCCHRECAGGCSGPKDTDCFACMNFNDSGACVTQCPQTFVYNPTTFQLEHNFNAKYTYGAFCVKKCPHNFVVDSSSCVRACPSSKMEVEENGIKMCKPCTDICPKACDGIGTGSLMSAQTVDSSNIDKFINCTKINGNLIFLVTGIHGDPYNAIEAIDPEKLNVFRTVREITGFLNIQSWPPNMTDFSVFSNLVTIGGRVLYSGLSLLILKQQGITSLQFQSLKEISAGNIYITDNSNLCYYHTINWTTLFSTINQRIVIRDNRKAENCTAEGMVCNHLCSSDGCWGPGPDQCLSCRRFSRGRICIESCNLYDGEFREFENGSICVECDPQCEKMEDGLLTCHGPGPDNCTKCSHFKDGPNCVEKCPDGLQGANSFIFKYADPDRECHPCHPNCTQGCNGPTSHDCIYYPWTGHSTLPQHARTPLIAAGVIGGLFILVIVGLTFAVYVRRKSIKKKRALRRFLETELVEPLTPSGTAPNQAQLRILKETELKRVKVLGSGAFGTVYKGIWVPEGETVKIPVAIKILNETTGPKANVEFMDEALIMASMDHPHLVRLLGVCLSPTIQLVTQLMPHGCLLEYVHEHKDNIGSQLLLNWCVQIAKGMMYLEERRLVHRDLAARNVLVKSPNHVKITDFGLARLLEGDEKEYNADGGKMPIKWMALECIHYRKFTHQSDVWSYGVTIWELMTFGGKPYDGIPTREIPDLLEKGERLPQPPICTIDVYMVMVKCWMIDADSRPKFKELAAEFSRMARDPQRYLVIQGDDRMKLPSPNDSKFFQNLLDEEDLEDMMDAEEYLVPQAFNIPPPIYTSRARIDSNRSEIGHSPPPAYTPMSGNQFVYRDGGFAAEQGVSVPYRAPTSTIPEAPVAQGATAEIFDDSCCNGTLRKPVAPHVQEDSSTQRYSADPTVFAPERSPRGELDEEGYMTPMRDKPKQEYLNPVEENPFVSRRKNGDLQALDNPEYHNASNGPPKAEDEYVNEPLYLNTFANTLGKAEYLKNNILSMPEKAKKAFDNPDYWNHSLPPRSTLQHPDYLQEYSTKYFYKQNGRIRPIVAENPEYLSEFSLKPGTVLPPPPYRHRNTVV
Description: as §1
Experiment [3] has as its target 363 human kinases (including Aurora A/B/C) (Homo sapiens, UniProt Q05655). The note with it: PKCd; for remaining activity at 0.5 µM / remaining activity at 0.1 µM: read-out: % Enzyme Activity (relative to DMSO controls); for remaining activity at 0.1 µM: 100 nM.
Description: as §1
In experiment [4] the target is T1, 363 human kinases (including Aurora A/B/C) (Homo sapiens, UniProt Q8WXR4).
T1 sequence (Q8WXR4 1-1341): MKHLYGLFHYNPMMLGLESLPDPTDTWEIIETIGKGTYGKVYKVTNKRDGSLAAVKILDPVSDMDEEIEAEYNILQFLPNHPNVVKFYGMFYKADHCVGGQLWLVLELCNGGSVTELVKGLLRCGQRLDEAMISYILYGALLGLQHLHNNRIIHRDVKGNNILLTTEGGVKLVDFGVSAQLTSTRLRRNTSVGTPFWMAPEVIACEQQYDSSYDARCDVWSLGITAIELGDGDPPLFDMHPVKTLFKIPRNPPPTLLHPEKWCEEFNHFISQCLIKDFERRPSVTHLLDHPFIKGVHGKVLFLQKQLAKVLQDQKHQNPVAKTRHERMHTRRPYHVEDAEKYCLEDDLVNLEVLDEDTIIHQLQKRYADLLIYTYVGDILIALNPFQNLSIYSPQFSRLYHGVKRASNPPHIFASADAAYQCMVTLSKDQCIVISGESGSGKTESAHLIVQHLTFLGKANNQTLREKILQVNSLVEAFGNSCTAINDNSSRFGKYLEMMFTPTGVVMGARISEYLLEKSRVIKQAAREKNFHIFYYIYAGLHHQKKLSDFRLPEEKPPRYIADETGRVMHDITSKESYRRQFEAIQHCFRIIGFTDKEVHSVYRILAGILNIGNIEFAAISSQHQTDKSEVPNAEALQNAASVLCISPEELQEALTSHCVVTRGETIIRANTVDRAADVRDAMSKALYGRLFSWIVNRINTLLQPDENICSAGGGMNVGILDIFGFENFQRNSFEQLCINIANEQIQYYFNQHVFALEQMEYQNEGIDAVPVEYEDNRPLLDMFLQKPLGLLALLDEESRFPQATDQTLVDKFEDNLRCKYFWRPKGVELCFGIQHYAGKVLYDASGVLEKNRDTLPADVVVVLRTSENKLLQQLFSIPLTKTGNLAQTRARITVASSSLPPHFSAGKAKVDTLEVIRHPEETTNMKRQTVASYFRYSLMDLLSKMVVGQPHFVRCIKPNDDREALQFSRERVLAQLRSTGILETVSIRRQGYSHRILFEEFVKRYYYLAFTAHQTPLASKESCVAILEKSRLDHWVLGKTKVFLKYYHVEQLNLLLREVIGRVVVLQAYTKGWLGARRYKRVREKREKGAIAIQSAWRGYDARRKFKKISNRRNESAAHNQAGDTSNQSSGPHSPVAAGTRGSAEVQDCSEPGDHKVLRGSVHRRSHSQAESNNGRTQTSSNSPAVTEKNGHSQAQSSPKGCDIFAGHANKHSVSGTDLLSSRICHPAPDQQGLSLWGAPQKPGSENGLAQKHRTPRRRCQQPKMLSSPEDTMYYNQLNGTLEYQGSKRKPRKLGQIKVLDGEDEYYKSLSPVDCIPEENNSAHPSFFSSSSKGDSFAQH
Conditions: MYO3b; for remaining activity at 0.5 µM / remaining activity at 0.1 µM: read-out: % Enzyme Activity (relative to DMSO controls); for remaining activity at 0.1 µM: 100 nM.
Description: as §1

Experiment [5] concerns the target T2, 363 human kinases (including Aurora A/B/C) (Homo sapiens, UniProt Q9UF33).
T2 sequence (Q9UF33 23-1036): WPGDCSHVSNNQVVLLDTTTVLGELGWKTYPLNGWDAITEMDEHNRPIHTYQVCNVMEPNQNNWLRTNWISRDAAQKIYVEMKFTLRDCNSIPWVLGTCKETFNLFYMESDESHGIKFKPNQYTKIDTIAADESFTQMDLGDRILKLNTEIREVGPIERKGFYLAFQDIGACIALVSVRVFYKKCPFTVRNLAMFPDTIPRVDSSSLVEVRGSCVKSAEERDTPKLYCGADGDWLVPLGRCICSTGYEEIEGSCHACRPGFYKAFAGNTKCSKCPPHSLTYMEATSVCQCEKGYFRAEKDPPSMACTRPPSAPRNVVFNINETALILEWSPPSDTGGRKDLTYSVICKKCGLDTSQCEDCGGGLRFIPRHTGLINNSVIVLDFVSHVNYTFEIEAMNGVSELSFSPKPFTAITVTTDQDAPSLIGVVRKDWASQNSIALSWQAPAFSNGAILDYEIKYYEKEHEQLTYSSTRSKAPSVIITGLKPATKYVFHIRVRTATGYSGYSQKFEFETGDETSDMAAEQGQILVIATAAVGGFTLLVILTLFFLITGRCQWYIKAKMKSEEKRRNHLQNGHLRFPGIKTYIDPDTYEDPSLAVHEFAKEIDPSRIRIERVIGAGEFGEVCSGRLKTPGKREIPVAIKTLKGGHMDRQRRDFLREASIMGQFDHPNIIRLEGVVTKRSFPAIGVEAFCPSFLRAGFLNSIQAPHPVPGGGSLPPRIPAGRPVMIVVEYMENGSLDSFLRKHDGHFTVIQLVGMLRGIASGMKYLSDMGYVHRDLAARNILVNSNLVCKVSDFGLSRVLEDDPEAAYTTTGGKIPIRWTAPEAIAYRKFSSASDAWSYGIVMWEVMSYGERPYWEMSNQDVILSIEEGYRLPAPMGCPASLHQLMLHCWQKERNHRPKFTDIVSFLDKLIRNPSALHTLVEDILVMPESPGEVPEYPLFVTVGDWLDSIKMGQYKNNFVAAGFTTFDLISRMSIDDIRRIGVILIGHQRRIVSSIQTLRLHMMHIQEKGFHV
The note with it: EPHA6, [ATP] 100 µM; for remaining activity at 0.5 µM / remaining activity at 0.1 µM: read-out: % Enzyme Activity (relative to DMSO controls); for remaining activity at 0.1 µM: 100 nM.
Description: as §1

The target in experiment [6] is 363 human kinases (including Aurora A/B/C) (Homo sapiens, UniProt Q00526). Conditions: CDK3/cyclin E, [ATP] 30 µM; for remaining activity at 0.5 µM / remaining activity at 0.1 µM: read-out: % Enzyme Activity (relative to DMSO controls); for remaining activity at 0.1 µM: 100 nM.
Sequence of 363 human kinases (including Aurora A/B/C) (Homo sapiens, UniProt Q00526) (Q00526 whole entry): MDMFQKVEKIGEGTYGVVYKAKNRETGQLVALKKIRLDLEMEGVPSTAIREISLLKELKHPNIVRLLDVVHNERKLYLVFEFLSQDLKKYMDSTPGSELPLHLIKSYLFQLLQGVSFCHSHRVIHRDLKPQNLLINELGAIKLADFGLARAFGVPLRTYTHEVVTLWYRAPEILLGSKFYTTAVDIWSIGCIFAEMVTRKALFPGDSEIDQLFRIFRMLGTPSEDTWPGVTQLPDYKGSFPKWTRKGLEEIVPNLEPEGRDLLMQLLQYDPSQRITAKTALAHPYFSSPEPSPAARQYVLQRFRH
Description: as §1

Sequence of 363 human kinases (including Aurora A/B/C) (Homo sapiens, UniProt Q05655) (Q05655 whole entry): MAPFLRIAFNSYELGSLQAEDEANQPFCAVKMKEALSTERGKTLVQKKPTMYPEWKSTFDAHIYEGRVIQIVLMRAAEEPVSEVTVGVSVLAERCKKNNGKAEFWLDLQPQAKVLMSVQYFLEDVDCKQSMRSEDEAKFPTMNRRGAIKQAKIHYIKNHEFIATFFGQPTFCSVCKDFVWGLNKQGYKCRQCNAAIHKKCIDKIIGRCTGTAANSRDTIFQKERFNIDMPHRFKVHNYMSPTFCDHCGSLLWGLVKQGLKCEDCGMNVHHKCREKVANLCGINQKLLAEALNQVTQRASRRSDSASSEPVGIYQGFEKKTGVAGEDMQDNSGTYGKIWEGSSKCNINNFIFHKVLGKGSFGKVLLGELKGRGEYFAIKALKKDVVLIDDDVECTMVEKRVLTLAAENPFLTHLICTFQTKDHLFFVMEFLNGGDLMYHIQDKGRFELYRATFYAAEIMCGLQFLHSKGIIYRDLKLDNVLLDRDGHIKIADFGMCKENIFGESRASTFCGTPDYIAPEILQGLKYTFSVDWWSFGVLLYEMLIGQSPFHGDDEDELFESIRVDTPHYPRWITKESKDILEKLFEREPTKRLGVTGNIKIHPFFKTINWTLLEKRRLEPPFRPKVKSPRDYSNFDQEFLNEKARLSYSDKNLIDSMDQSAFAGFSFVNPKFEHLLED

For `O=C(c1cccc(Cl)c1F)N1CCN(Cc2cccc(Nc3nccs3)n2)CC1` [MK-8745], the “% Enzyme Activity (relative to DMSO controls)” value in experiment [1] (500 nM) worked out at 62.84%; in experiment [2] (500 nM) it was 93.35%; in experiment [3] (500 nM), 130.26%; in experiment [4] (500 nM), 106.69%; in experiment [5] (500 nM) it was 34.30%; in experiment [6] (500 nM), 77.67%. For the same compound, the remaining activity at 0.5 µM in experiment [1] (500 nM) came to 65.6%; in experiment [2] (500 nM), 94.9%; in experiment [3] (500 nM), 141%; in experiment [4] (500 nM), 107%; in experiment [5] (500 nM) it was 34.6%; in experiment [6] (500 nM), 78.6%.

For the compound `CCn1cc(-c2ccnc3[nH]c(-c4cccc(CN(C)C)c4)cc23)c(-c2ccc(NC(=O)N(C)C)cc2)n1` [GSK1070916], the remaining activity at 0.1 µM amounted to 104% in experiment [1]; 87.3% in experiment [2]; 201% in experiment [3]; 102% in experiment [4]; 89.4% in experiment [5]; 83.7% in experiment [6].

On to `O=C(O)[C@]1(Cc2cccc(Nc3nccs3)n2)CC[C@@H](Oc2cccc(Cl)c2F)CC1` [MK-5108], for which the remaining activity at 0.1 µM stood at 31.1% in experiment [1]; 97.1% in experiment [2]; 97.8% in experiment [3]; 99.8% in experiment [4]; 5.77% in experiment [5]; 88.3% in experiment [6]. Besides, the remaining activity at 0.5 µM was determined as 7.8% in experiment [1] (500 nM); 77.7% in experiment [2] (500 nM); 201% in experiment [3] (500 nM); 100% in experiment [4] (500 nM); 1.6% in experiment [5] (500 nM); 80.5% in experiment [6] (500 nM).
